Measured values: paper PMC4883699 (Bioorganic & medicinal chemistry, 2009)

Columns and labels:
in vitro = conditions: African green monkey
[1] = Cytotoxicity on Vero cells; conditions: African green monkey
malaria parasite = conditions: cited from earlier work; for reduction in parasitemia: oral, 2 × 100 μmol/kg; for survival times versus chloroquine or artemisinin treated mice: single dose 50 or 100 μmol/kg
[2] = test system: Plasmodium falciparum (D6 clone, Sierra Leone, chloroquine sensitive); test: In vitro antimalarial activity, chloroquine sensitive D6 clone; assay type: cell-based; conditions: D6, read-out: P. falciparum (D6 Clone) IC50
[3] = test system: Plasmodium falciparum (W2 clone, IndoChina, chloroquine resistant); test: In vitro antimalarial activity, chloroquine resistant W2 clone; assay type: cell-based; conditions: W2, read-out: P. falciparum (W2 Clone) IC50
[4] = test system: P. berghei (NK-65 strain); test: In vivo antimalarial activity in P. berghei infected mice; parameters: species or system mice (Swiss Webster); conditions: for apparent toxicity in vivo: oral, 30 mg/kg once daily for three days, mice
[5] = test system: Mycobacterium intracellulare; test: In vitro antimicrobial activity, M. intracellulare; assay type: cell-based; conditions: read-out: M. intracellulare IC50
[6] = test system: African green monkey kidney fibroblast cells (Vero); conditions: cited from earlier work
[7] = Vero cells (African green monkey kidney fibroblast cells)

## CCCCC(=O)Nc1ccc2[nH]c3c(C4=C[C@@]5(O)CC/C=C\CCCCN6CC[C@@H]4[C@]4(C[C@@H]7/C=C\CCCCN7[C@H]45)C6)nccc3c2c1 [Compound 9, 6-n-Pentamidomanzamine A]
In vitro
  IC50: > 470 nM

## CC(C)(C)CC(=O)Nc1cccc2c1[nH]c1c(C3=C[C@@]4(O)CC/C=C\CCCCN5CC[C@@H]3[C@]3(C[C@@H]6/C=C\CCCCN6[C@H]34)C5)nccc12 [Compound 23, 8-(t-Butyl)-acetamidomanzamine A]
In vitro
  IC50: > 470 nM

## CCC(=O)Nc1ccc2[nH]c3c(C4=C[C@@]5(O)CC/C=C\CCCCN6CC[C@@H]4[C@]4(C[C@@H]7/C=C\CCCCN7[C@H]45)C6)nccc3c2c1 [Compound 6, 6-n-Propamidomanzamine A]
[1]; [7]
  IC50: > 470 nM

## Oc1cccc2c1[nH]c1c(C3=C[C@@]4(O)CC/C=C\CCCCN5CC[C@@H]3[C@]3(C[C@@H]6/C=C\CCCCN6[C@H]34)C5)nccc12 [Compound 2, 8-Hydroxymanzamine A]
Malaria parasite
  reduction in parasitemia: 90%
  survival times versus chloroquine or artemisinin treated mice: significant improvements in survival times

## CC(C)(C)CC(=O)Nc1ccc2[nH]c3c(C4=C[C@@]5(O)CC/C=C\CCCCN6CC[C@@H]4[C@]4(C[C@@H]7/C=C\CCCCN7[C@H]45)C6)nccc3c2c1 [Compound 13, 6-(t-Butyl)-acetamidomanzamine A]
[1]; [7]
  IC50: > 470 nM

## O=C(Nc1cccc2c1[nH]c1c(C3=C[C@@]4(O)CC/C=C\CCCCN5CC[C@@H]3[C@]3(C[C@@H]6/C=C\CCCCN6[C@H]34)C5)nccc12)C1CCCCC1 [Compound 24, 8-Cyclohexamidomanzamine A]
In vitro
  IC50: > 470 nM

## CC(C)C(=O)Nc1ccc2[nH]c3c(C4=C[C@@]5(O)CC/C=C\CCCCN6CC[C@@H]4[C@]4(C[C@@H]7/C=C\CCCCN7[C@H]45)C6)nccc3c2c1 [Compound 8, 6-Isobutamidomanzamine A]
[1]
  IC50: > 470 nM

## CCN(CC)CCCC(C)Nc1ccnc2cc(Cl)ccc12 (centres unmarked) [Chloroquine]
[2]
  IC50: 50 nM
[3]
  IC50: 484 nM
[4]; chloroquine control, 10 mg/kg, three doses
  suppression of the parasitemia: 100%

## CCCCCC(=O)Nc1cccc2c1[nH]c1c(C3=C[C@@]4(O)CC/C=C\CCCCN5CC[C@@H]3[C@]3(C[C@@H]6/C=C\CCCCN6[C@H]34)C5)nccc12 [Compound 21, 8-n-Hexamidomanzamine A]
[4]
  apparent toxicity in vivo: no apparent toxicity

## CCCCC(=O)Nc1cccc2c1[nH]c1c(C3=C[C@@]4(O)CC/C=C\CCCCN5CC[C@@H]3[C@]3(C[C@@H]6/C=C\CCCCN6[C@H]34)C5)nccc12 [Compound 19, 8-n-Pentamidomanzamine A]
In vitro
  IC50: > 470 nM

## O=C(Nc1ccc2[nH]c3c(C4=C[C@@]5(O)CC/C=C\CCCCN6CC[C@@H]4[C@]4(C[C@@H]7/C=C\CCCCN7[C@H]45)C6)nccc3c2c1)C1CCCCC1 [Compound 14, 6-Cyclohexamidomanzamine A]
[4]
  apparent toxicity in vivo: no apparent toxicity
[1]
  IC50: > 470 nM

## CC(C)(C)C(=O)Nc1ccc2[nH]c3c(C4=C[C@@]5(O)CC/C=C\CCCCN6CC[C@@H]4[C@]4(C[C@@H]7/C=C\CCCCN7[C@H]45)C6)nccc3c2c1 [Compound 10, 6-Pivalamidomanzamine A]
[1]; [7]
  IC50: > 470 nM

## CCCCCC(=O)Nc1ccc2[nH]c3c(C4=C[C@@]5(O)CC/C=C\CCCCN6CC[C@@H]4[C@]4(C[C@@H]7/C=C\CCCCN7[C@H]45)C6)nccc3c2c1 [Compound 11, 6-n-Hexamidomanzamine A]
In vitro
  IC50: > 470 nM

## CC(C)C(=O)Nc1cccc2c1[nH]c1c(C3=C[C@@]4(O)CC/C=C\CCCCN5CC[C@@H]3[C@]3(C[C@@H]6/C=C\CCCCN6[C@H]34)C5)nccc12 [Compound 18, 8-Isobutamidomanzamine A]
[1]; [7]
  IC50: > 470 nM

## O[C@]12C=C(c3nccc4c3[nH]c3ccccc34)[C@@H]3CCN(CCCC/C=C\CC1)C[C@@]31C[C@@H]3/C=C\CCCCN3[C@H]12 [Compound 1, Manzamine A]
[5]
  IC50: 640 nM
[6]
  TC50 against Vero cells: 365 nM
Malaria parasite
  reduction in parasitemia: 90%
  survival times versus chloroquine or artemisinin treated mice: significant improvements in survival times
[1]
  IC50: 365 nM
